Among the data in patent US10676429B2, “Sulfamoyl-arylamides and the use thereof as medicaments for the treatment of hepatitis B” (priority 2012, dated 2020) are EC50 and CC50 values, retold here.

SMILES strings stand for the structures.

The test system of data set [1] is HBV. Description: Anti-HBV activity in stable transfected HepG2.2.15 cell line (HBV DNA from secreted virions, realtime PCR). In kind it is cell-based.
The nature of data set [2]: Cytotoxicity in HepG2 cells, 4 days, Resazurin assay. Conditions: human. For orientation: Alamar Blue is a resazurin reagent that responds to reducing activity.
For data set [3], the system named is HBV. Description: Anti-HBV activity in HepG2.117 cell line (Tet-off, intracellular HBV DNA, realtime PCR). Format: cell-based.
Setting [4] is: Hepatitis B virus, HepG2.2.15, 144 h, HepG2.2.15 cells, 6 days of treatment, secreted virion HBV DNA, read-out: HepG2 2.15 EC50.
Where [5] appears, read: Hepatitis B virus, HepG2.117, 72 h, HepG2.117 cells, 3 days of treatment, intracellular HBV DNA, read-out: HepG2 117 EC50.

What is called EC50 is the concentration at which the effect is half-maximal. Usually CC50 stands for the concentration at which the toxic effect on the cells reaches its halfway point. `Cc1cc(NC(=O)c2cccc(S(=O)(=O)NC3CCC(O)C3)c2)ccc1F` (single isomer, unassigned) [Compound 145a, N-(4-fluoro-3-methyl-phenyl)-3-[[(1R,3S)-3-hydroxycyclopentyl]sulfamoyl]benzamide or N-(4-fluoro-3-methyl-phenyl)-3-[[(1S,3R)-3-hydroxycyclopentyl]sulfamoyl]benzamide]: the concentration giving a half-maximal response (EC50) is 0.14 µM with HBV [1] (HepG2.2.15 cells, 6 days of treatment, secreted virion HBV DNA, read-out: HepG2 2.15 EC50) and 0.21 µM in the data set on HBV [3] (HepG2.117 cells, 3 days of treatment, intracellular HBV DNA, read-out: HepG2 117 EC50). The same compound registered a CC50 at 4 days in data set [2] (HepG2 cells) above 25 µM.
As for `O=C(Nc1cccc(C(F)(F)F)c1)c1cc(S(=O)(=O)NC2CCCCC2)ccc1F` [Compound 7], the 50% effective concentration (EC50) in the data set on HBV [1] (setting [4]) was 0.66 µM; in the data set on HBV [3] (setting [5]), 0.56 µM. Besides, in data set [2] (HepG2 cells), the CC50 at 4 days worked out at 11.4 µM.
As for `Cc1cc(NC(=O)c2cccc(S(=O)(=O)NC3CCCC3)c2)ccc1F` [Compound 11], the EC50 in the data set with HBV [1] (setting [4]) is 0.1 µM; in the data set with HBV [3] (setting [5]), 0.42 µM. In data set [2] (HepG2 cells), this compound showed a CC50 at 4 days of 19.6 µM.
In the case of `Cc1cc(F)cc(NC(=O)c2cccc(S(=O)(=O)NC3CCCC3)c2)c1` [Compound 12], the EC50 in the data set on HBV [1] (setting [4]) was determined as 0.11 µM; in the data set on HBV [3] (setting [5]) it was 1.51 µM. The same compound showed a CC50 at 4 days in data set [2] (HepG2 cells) of 13.3 µM.
In the case of `Cc1ccc(NC(=O)c2cccc(S(=O)(=O)NC3CCCC3)c2)cc1F` [Compound 13], the concentration giving a half-maximal response (EC50) came out at 1.99 µM in the data set on HBV [1] (setting [4]) and 15.3 µM in the data set with HBV [3] (setting [5]). This compound also gave a CC50 at 4 days in data set [2] (HepG2 cells) of 13.8 µM.
Turning to `O=C(Nc1ccc(F)c(F)c1)c1cccc(S(=O)(=O)NC2CCCC2)c1` [Compound 14], the EC50 was 0.09 µM in the data set on HBV [1] (setting [4]) and 0.36 µM in the data set with HBV [3] (setting [5]). Half-maximal cytotoxicity in data set [2] (HepG2 cells) (CC50 at 4 days) was put at 11.7 µM.
For `O=C(Nc1cc(F)cc(F)c1)c1cccc(S(=O)(=O)NC2CCCC2)c1` [Compound 15], the EC50 with HBV [1] (setting [4]) is 0.28 µM; with HBV [3] (setting [5]) it was 0.78 µM. In data set [2] (HepG2 cells), this compound had a CC50 at 4 days of 10.1 µM.
As to `Cc1cc(NC(=O)c2cccc(S(=O)(=O)NC3CCCC3)c2)ccc1C#N` [Compound 16], the EC50 came out at 1.21 µM in the data set on HBV [1] (setting [4]) and 2.8 µM in the data set on HBV [3] (setting [5]). Moreover, in data set [2] (HepG2 cells), it took 10.3 µM to reach half-maximal cytotoxicity (CC50 at 4 days).
As for `Cc1cccc(NC(=O)c2cc(S(=O)(=O)N3CCCCC3)c(Cl)cc2Cl)c1` [Compound 17], the EC50 in the data set on HBV [1] (setting [4]) came out at 0.56 µM; in the data set with HBV [3] (setting [5]) it was 2.65 µM. Besides, in data set [2] (HepG2 cells), the CC50 at 4 days is above 100 µM.
For `O=C(Nc1ccc(F)cc1)c1cccc(S(=O)(=O)N2CCCC2)c1` [Compound 36] the same measures were 4.53 µM, 3.03 µM and 97 µM.
Turning to `CN(C(=O)C1CCCCC1)S(=O)(=O)c1cccc(C(=O)Nc2ccc(F)cc2)c1` [Compound 48], the EC50 is 2.92 µM in the data set on HBV [1] (setting [4]) and 1.88 µM with HBV [3] (setting [5]). The same compound displayed a half-maximal cytotoxic concentration (CC50) at 4 days in data set [2] (HepG2 cells) of 97.2 µM.
For `CN(C)S(=O)(=O)c1ccc(F)c(C(=O)Nc2ccccc2)c1` [Compound 49] the same measures were 13.4 µM, 9.15 µM and above 100 µM.
For `O=C(Nc1ccc(C(F)(F)F)cc1)c1cc(S(=O)(=O)NC2CCCC2)ccc1F` [Compound 50] the same measures were 45.9 µM, 15.8 µM and 11.3 µM.
On to `O=C(Nc1ccc(Cl)cc1)c1cc(S(=O)(=O)NC2CCCC2)ccc1F` [Compound 51], for which the EC50 with HBV [1] (setting [4]) was 3.98 µM; with HBV [3] (setting [5]) it was 9.44 µM. Also, in data set [2] (HepG2 cells), the midpoint of cytotoxicity, the CC50 at 4 days, lay at 20.8 µM.
Consider `O=C(Nc1ccc(F)cc1)c1cc(S(=O)(=O)N2CCC3(CC2)OCCO3)ccc1F` [Compound 52], for which the EC50 in the data set with HBV [1] (setting [4]) was found to be 1.94 µM; in the data set with HBV [3] (setting [5]) it was 2.44 µM. In data set [2] (HepG2 cells), the half-maximal cytotoxic concentration (CC50) at 4 days is above 50 µM.
With `O=C(Nc1ccc(F)cc1)c1cc(S(=O)(=O)NC2CCCC2)ccc1F` [Compound 53], the results for the EC50 in the data set with HBV [1] (setting [4]) and in the data set with HBV [3] (setting [5]) were 0.36 µM and 0.44 µM, respectively. Also, in data set [2] (HepG2 cells), the CC50 at 4 days was above 50 µM.
As for `O=C(Nc1ccc(F)cc1)c1cc(S(=O)(=O)N2CCCCC2)ccc1Cl` [Compound 54], the EC50 with HBV [1] (setting [4]) amounted to 1.63 µM; in the data set on HBV [3] (setting [5]), 1.55 µM. Further, in data set [2] (HepG2 cells), the 50% cytotoxic concentration (CC50) at 4 days is above 50 µM.
For `O=C(Nc1ccccc1)c1cccc(S(=O)(=O)NC2CC2)c1` [Compound 55] the same measures were 3.06 µM, 3.26 µM and above 100 µM.
With `O=C(Nc1ccc(F)cc1)c1cccc(S(=O)(=O)NC(=O)C2CCCCC2)c1` [Compound 56], the results for the EC50 with HBV [1] (setting [4]) and with HBV [3] (setting [5]) were 1.64 µM and 5.45 µM, respectively. The same compound came in with a CC50 at 4 days in data set [2] (HepG2 cells) above 100 µM.
Take `O=C(Nc1ccc(F)cc1)c1ccc(S(=O)(=O)N2CCCCC2)o1` [Compound 57]: the EC50 in the data set with HBV [1] (setting [4]) stood at 15.5 µM; in the data set on HBV [3] (setting [5]), 12.7 µM. In data set [2] (HepG2 cells), this compound gave a CC50 at 4 days of 52.1 µM.
As for `O=C(Nc1ccccc1)c1ccc(S(=O)(=O)N2CCCCC2)o1` [Compound 58], the concentration for a half-maximal effect (EC50) came to 14.6 µM in the data set on HBV [1] (setting [4]) and 19.9 µM in the data set on HBV [3] (setting [5]). In data set [2] (HepG2 cells), this compound came in with a CC50 at 4 days of 62.5 µM.
For `O=C(Nc1ccccc1)c1cc(S(=O)(=O)N2CCCCC2)cs1` [Compound 59] the same measures were 12.8 µM, 19.3 µM and 46.7 µM.
Turning to `O=C(Nc1ccccc1)c1cc(S(=O)(=O)NC2CCCCC2)cs1` [Compound 60], the EC50 in the data set with HBV [1] (setting [4]) worked out at 0.85 µM; in the data set with HBV [3] (setting [5]) it was 0.67 µM. Besides, in data set [2] (HepG2 cells), the 50% cytotoxic concentration (CC50) at 4 days came to 29.1 µM.
As to `O=C(Nc1ccc(F)cc1)c1cc(S(=O)(=O)N2CCCCC2)cs1` [Compound 61], the EC50 was 7.07 µM with HBV [1] (Hepatitis B virus, HepG2.2.15, 144 h, read-out: HepG2 2.15 EC50 (μM)) and 15.4 µM in the data set with HBV [3] (Hepatitis B virus, HepG2.117, 72 h, read-out: HepG2 117 EC50 (μM)). Also, the CC50 at 4 days in data set [2] worked out at 35.7 µM.
As to `Cc1[nH]c(C(=O)Nc2ccccc2)c(C)c1S(=O)(=O)N1CCCCC1` [Compound 62], the EC50 in the data set with HBV [1] (setting [4]) came out at 7.06 µM; with HBV [3] (setting [5]), 10.1 µM. For the same compound, the CC50 at 4 days in data set [2] (HepG2 cells) was above 50 µM.
As for `O=C(Nc1ccccc1)c1c[nH]c(S(=O)(=O)NC2CCCCC2)n1` [Compound 63], the EC50 in the data set with HBV [1] (setting [4]) worked out at 9.94 µM; in the data set with HBV [3] (setting [5]), 21.1 µM. Besides, the CC50 at 4 days in data set [2] (HepG2 cells) was above 100 µM.
For `O=C(Nc1ccccc1)c1cccc(S(=O)(=O)NC2CCCCC2)n1` [Compound 65], the EC50 was 10.8 µM in the data set with HBV [1] (setting [4]) and above 25 µM with HBV [3] (setting [5]). Further, the half-maximal cytotoxic concentration (CC50) at 4 days in data set [2] (HepG2 cells) stood at 35.3 µM.
For `O=C(Nc1ccccc1)c1ccnc(S(=O)(=O)NC2CCCCC2)c1` [Compound 66] the same measures were 4.27 µM, 14.5 µM and above 100 µM.
For `O=C(Nc1ccccc1)c1cc(S(=O)(=O)NC2CCCCC2)ccn1` [Compound 67] the same measures were 11.1 µM, 18.6 µM and above 100 µM.
Consider `O=C(Nc1ccccc1)c1cncc(S(=O)(=O)NC2CCCCC2)c1` [Compound 68], for which the values for the EC50 in the data set with HBV [1] (setting [4]) and with HBV [3] (setting [5]) were 18.6 µM and above 25 µM, respectively. It took 68 µM to reach half-maximal cytotoxicity in data set [2] (HepG2 cells) (CC50 at 4 days).
As to `O=C(Nc1ccc(F)cc1)c1cccc(S(=O)(=O)N2CCCCC2=O)c1` [Compound 69], the concentration for a half-maximal effect (EC50) in the data set on HBV [1] (setting [4]) is 3.9 µM; in the data set on HBV [3] (setting [5]), 10.4 µM. In addition, in data set [2] (HepG2 cells), the CC50 at 4 days is above 25 µM.
Regarding `CC[C@@H](C)NS(=O)(=O)c1cccc(C(=O)Nc2ccc(F)cc2)c1` [Compound 70], the EC50 in the data set with HBV [1] (setting [4]) stood at 0.34 µM; in the data set with HBV [3] (setting [5]), 0.89 µM. The same compound gave a cytotoxic concentration (CC50) at 4 days in data set [2] (HepG2 cells) above 25 µM.
For the compound `CC[C@H](C)NS(=O)(=O)c1cccc(C(=O)Nc2ccc(F)cc2)c1` [Compound 71], the values for the EC50 with HBV [1] (setting [4]) and in the data set with HBV [3] (setting [5]) were 0.75 µM and 8.63 µM, respectively. Also, the CC50 at 4 days in data set [2] (HepG2 cells) was above 25 µM.
`Cc1cc(NC(=O)c2cccc(S(=O)(=O)N[C@H]3CCOC3)c2)ccc1F` [Compound 72]: the EC50 in the data set on HBV [1] (setting [4]) is 0.12 µM; in the data set on HBV [3] (setting [5]) it was 0.37 µM. The CC50 at 4 days in data set [2] (HepG2 cells) is above 25 µM.
